From patent publication US10124085B2, “Antimicrobial and antiviral hygienic products” (priority 2014, dated 2018)

Columns and labels:
[1] = system: Escherichia coli; assay: Modified disc diffusion method; type: cell-based; parameters: key: +sign indicates that the boron compounds had antimicrobial activity.; −sign indicates that there is no antimicrobial activity; conditions: disc immersed in pulverized boron compound; Ofloxacin 10 μg/disc; 36±1° C., 24 hours
[2] = system: Staphylococcus aureus; assay: Modified disc diffusion method; type: cell-based; parameters: key: +sign indicates that the boron compounds had antimicrobial activity.; −sign indicates that there is no antimicrobial activity; conditions: disc immersed in pulverized boron compound; Ofloxacin 10 μg/disc; 36±1° C., 24 hours
[3] = system: Pseudomonas aeruginosa; assay: Modified disc diffusion method; type: cell-based; parameters: key: +sign indicates that the boron compounds had antimicrobial activity.; −sign indicates that there is no antimicrobial activity; conditions: disc immersed in pulverized boron compound; Ofloxacin 10 μg/disc; 36±1° C., 24 hours
[4] = system: Candida albicans; assay: Modified disc diffusion method; type: cell-based; parameters: key: +sign indicates that the boron compounds had antimicrobial activity.; −sign indicates that there is no antimicrobial activity; conditions: disc immersed in pulverized boron compound; Nystatin 30 μg/disc; 36±1° C., 48 hours
[5] = system: Candida glabrata; assay: Modified disc diffusion method; type: cell-based; parameters: key: +sign indicates that the boron compounds had antimicrobial activity.; −sign indicates that there is no antimicrobial activity; conditions: disc immersed in pulverized boron compound; Nystatin 30 μg/disc; 36±1° C., 48 hours
[6] = system: Aspergillus niger; assay: Modified disc diffusion method; type: cell-based; parameters: key: +sign indicates that the boron compounds had antimicrobial activity.; −sign indicates that there is no antimicrobial activity; conditions: disc immersed in pulverized boron compound; Nystatin 30 μg/disc; 25±1° C., 72 hours
[7] = system: Fusarium oxysporum; assay: Modified disc diffusion method; type: cell-based; parameters: key: +sign indicates that the boron compounds had antimicrobial activity.; −sign indicates that there is no antimicrobial activity; conditions: disc immersed in pulverized boron compound; Nystatin 30 μg/disc; 25±1° C., 72 hours
[8] = system: Botrytis cinerea; assay: Modified disc diffusion method; type: cell-based; parameters: key: +sign indicates that the boron compounds had antimicrobial activity.; −sign indicates that there is no antimicrobial activity; conditions: disc immersed in pulverized boron compound; Nystatin 30 μg/disc; 25±1° C., 72 hours
[9] = system: Penicillium vinaceum; assay: Modified disc diffusion method; type: cell-based; parameters: key: +sign indicates that the boron compounds had antimicrobial activity.; −sign indicates that there is no antimicrobial activity; conditions: disc immersed in pulverized boron compound; Nystatin 30 μg/disc; 25±1° C., 72 hours
[10] = system: Penicillium expansum; assay: Modified disc diffusion method; type: cell-based; parameters: key: +sign indicates that the boron compounds had antimicrobial activity.; −sign indicates that there is no antimicrobial activity; conditions: disc immersed in pulverized boron compound; Nystatin 30 μg/disc; 25±1° C., 72 hours
[11] = system: all of the tested microorganisms; type: cell-based
[12] = system: Human adenovirus type 5 Adenoid 75 strain; assay: Antiviral activity test in HEp-2 cell culture (TCID50, Spearman-Karber); type: cell-based; conditions: for Reduction ratio in virus titration / Virus titration with Chlorhexidine gluconate: 0.1%, 20° C.; for Virus titration with Chlorhexidine gluconate: reference virus 5.5
[13] = system: Poliovirus type 1 Chat strain; type: cell-based
[14] = system: Human Herpes simplex virus type 1 (HSV-1) MacIntyre strain; assay: Antiviral activity test in Vero cell culture (TCID50, Spearman-Karber); type: cell-based; conditions: for Reduction ratio in virus titration / Virus titration with Chlorhexidine gluconate: 0.1%, 20° C.; for Virus titration with Chlorhexidine gluconate: reference virus 7.3
[15] = system: HEp-2 cells (ATCC CCL-23)
[16] = system: Herpesvirus hominis; conditions: 0.02% chlorhexidine gluconate; 90-minute exposure at room temperature; cited from earlier work
[17] = system: poliovirus; conditions: 0.02% chlorhexidine gluconate; 90-minute exposure at room temperature; cited from earlier work
[18] = system: adenovirus; conditions: 0.02% chlorhexidine gluconate; 90-minute exposure at room temperature; cited from earlier work
[19] = system: enteric bacteria; conditions: cited from earlier work
[20] = system: various bacterial strains; conditions: 10-minute exposure; 0.02% chlorhexidine solution; cited from earlier work
[21] = system: Penicillium expansium; conditions: cited from earlier work
[22] = system: Botrytis cinerea; conditions: 1% concentration; cited from earlier work
[23] = system: streptococci; conditions: cited from earlier work
[24] = system: micrococci; conditions: cited from earlier work
[25] = system: Propionibacterium acnes; conditions: cited from earlier work
[26] = room temperature (20° C.), clean and polluted media, 1 and 60 minute application periods
[27] = used directly without being diluted, room temperature (20° C.), 1 and 60 minute application periods

O.O.O.O.O.[Na+].[Na+].[O-]B1OB2OB([O-])OB(O1)O2 [BP, Borax pentahydrate]
Antimicrobial activity (inhibition zone) [1]: +
Antimicrobial activity (inhibition zone) [2]: +
Antimicrobial activity (inhibition zone) [3]: +
Antimicrobial activity (inhibition zone) [4]: +
Antimicrobial activity (inhibition zone) [5]: +
Antimicrobial activity (inhibition zone) [6]: +
Antimicrobial activity (inhibition zone) [7]: +
Antimicrobial activity (inhibition zone) [8]: +
Antimicrobial activity (inhibition zone) [9]: +
Antimicrobial activity (inhibition zone) [10]: +
concentration giving the most effective antimicrobial (antifungal, anticandidal and antibacterial) results [11]: 5.5 mg/cm^2

N=C(NCCCCCCNC(=N)NC(=N)Nc1ccc(Cl)cc1)NC(=N)Nc1ccc(Cl)cc1.O=C(O)[C@H](O)[C@@H](O)[C@H](O)[C@H](O)CO.O=C(O)[C@H](O)[C@@H](O)[C@H](O)[C@H](O)CO [Chlorhexidine gluconate]
Reduction ratio in virus titration ([12]; 1 minute, Clean medium): 4.0 Logarithmic TCID50
Virus titration with Chlorhexidine gluconate ([12]; 1 minute, Clean medium): 1.5 Logarithmic TCID50
Reduction ratio in virus titration ([12]; 1 minute, Polluted medium): 4.0 Logarithmic TCID50
Virus titration with Chlorhexidine gluconate ([12]; 1 minute, Polluted medium): 1.5 Logarithmic TCID50
Reduction ratio in virus titration ([12]; 60 minutes, Clean medium): 4.5 Logarithmic TCID50
Virus titration with Chlorhexidine gluconate ([12]; 60 minutes, Clean medium): 1.0 Logarithmic TCID50
Reduction ratio in virus titration ([12]; 60 minutes, Polluted medium): 4.0 Logarithmic TCID50
Virus titration with Chlorhexidine gluconate ([12]; 60 minutes, Polluted medium): 1.5 Logarithmic TCID50
reduction in virus titration [12, 26]: at least 4 log
active against virus [12, 27]: 99.9%
reduction in virus titration [13]: at least 4 log
Reduction ratio in virus titration ([13]; 0.1%, 20° C.): 4.2 Logarithmic TCID50
Virus titration with Chlorhexidine gluconate ([13]; 0.1%, 20° C.): 1.3 Logarithmic TCID50
Reduction ratio in virus titration ([14]; 1 minute, Clean medium): 4 Logarithmic TCID50
Virus titration with Chlorhexidine gluconate ([14]; 1 minute, Clean medium): 2.3 Logarithmic TCID50
Reduction ratio in virus titration ([14]; 1 minute, Polluted medium): 4 Logarithmic TCID50
Virus titration with Chlorhexidine gluconate ([14]; 1 minute, Polluted medium): 2.3 Logarithmic TCID50
Reduction ratio in virus titration ([14]; 60 minutes, Clean medium): 4 Logarithmic TCID50
Virus titration with Chlorhexidine gluconate ([14]; 60 minutes, Clean medium): 2.3 Logarithmic TCID50
Reduction ratio in virus titration ([14]; 60 minutes, Polluted medium): 4 Logarithmic TCID50
Virus titration with Chlorhexidine gluconate ([14]; 60 minutes, Polluted medium): 2.3 Logarithmic TCID50
reduction in virus titration [14, 26]: at least 4 log
active against virus [14, 27]: 99.9%
cytopathic effect on the cells in the cell culture [15]: showed cytopathic effect
lowest ratio which does not show cytopathic effect [15]: 0.1%
reduction of virus titration [16]: more than 99%
activity against virus [17]: ineffective
activity against virus [18]: ineffective

C[C@@H]1[C@H](O)[C@@H](C)/C=C/C=C/CC/C=C/C=C/C=C/C=C/C(O[C@H]2O[C@H](C)[C@@H](O)[C@H](N)[C@@H]2O)CC2O[C@](O)(CC(O)C(O)CCC(O)CC(O)CC(O)CC(=O)O[C@H]1C)CC(O)C2C(=O)O (stereo partly drawn) [Nystatin]
Antimicrobial activity (inhibition zone) [4]: +
Antimicrobial activity (inhibition zone) [5]: +
Antimicrobial activity (inhibition zone) [6]: +
Antimicrobial activity (inhibition zone) [7]: +
Antimicrobial activity (inhibition zone) [8]: +
Antimicrobial activity (inhibition zone) [9]: +
Antimicrobial activity (inhibition zone) [10]: +

CC1COc2c(N3CCN(C)CC3)c(F)cc3c(=O)c(C(=O)O)cn1c23 (stereo not drawn) [Ofloxacin]
Antimicrobial activity (inhibition zone) [1]: +
Antimicrobial activity (inhibition zone) [2]: +
Antimicrobial activity (inhibition zone) [3]: +

O.O.O.O.[Na+].[O-]B1OO1 [SPT, Sodium perborate tetrahydrate]
Antimicrobial activity (inhibition zone) [1]: +
Antimicrobial activity (inhibition zone) [2]: +
Antimicrobial activity (inhibition zone) [3]: +
Antimicrobial activity (inhibition zone) [4]: +
Antimicrobial activity (inhibition zone) [5]: +
Antimicrobial activity (inhibition zone) [6]: +
Antimicrobial activity (inhibition zone) [7]: +
Antimicrobial activity (inhibition zone) [8]: +
Antimicrobial activity (inhibition zone) [9]: +
Antimicrobial activity (inhibition zone) [10]: +
concentration giving the most effective antimicrobial (antifungal, anticandidal and antibacterial) results [11]: 5.5 mg/cm^2

OB(O)O [boric acid]
antibacterial activity [19]: has antibacterial activity

[H]/N=C(\N/C(=N/[H])NCCCCCCNC(=N)NC(=N)Nc1ccc(Cl)cc1)Nc1ccc(Cl)cc1 [chlorhexidine]
inhibition of microorganisms [20]: 99.99%

[K+].[K+].[O-]B1OB2OB([O-])OB(O1)O2 [potassium tetraborate]
minimum concentration preventing micelle growth [21]: 0.1%
control of mold causing disease on the grapes [22]: could control

Oc1cc(Cl)ccc1Oc1ccc(Cl)cc1Cl [triclosan]
effectiveness relative to hexachlorophene [23]: less effective
effectiveness relative to hexachlorophene [24]: less effective
effectiveness relative to hexachlorophene [25]: less effective

Sodium Borate [SB]
Antimicrobial activity (inhibition zone) [1]: +
Antimicrobial activity (inhibition zone) [2]: +
Antimicrobial activity (inhibition zone) [3]: +
Antimicrobial activity (inhibition zone) [4]: +
Antimicrobial activity (inhibition zone) [5]: +
Antimicrobial activity (inhibition zone) [6]: +
Antimicrobial activity (inhibition zone) [7]: +
Antimicrobial activity (inhibition zone) [8]: +
Antimicrobial activity (inhibition zone) [9]: +
Antimicrobial activity (inhibition zone) [10]: +
concentration giving the most effective antimicrobial (antifungal, anticandidal and antibacterial) results [11]: 4 mg/cm^2
